Test results published in patent US20120016010A1, “RNA Interference Mediated Inhibition of BTB and CNC Homology 1, Basic Leucine Zipper Transcription Factor 1 (BACH1) Gene Expression Using Short Interfering Nucleic Acid (siNA)” (Merck Sharp & Dohme Corp, priority 2009, published 2012).
[invAb] = inverted abasic unit; d = 2'-deoxy (DNA); m = 2'-O-methyl; r = 2'-OH (RNA); f = 2'-fluoro

Assays:
[1] = tested on: Bach1 mRNA; experiment: Initial screen: Bach1 mRNA knock-down in mouse NIH 3T3 cells (96-well transfection, quantitative RT-PCR); type: cell-based; conditions: mouse NIH3T3 cells, n = 2, 24 hrs post-transfection, protocol 10 nM siNA
Method: (§1) All cells were obtained from ATCC (Manassas, Va.) unless otherwise indicated. Cells were grown and transfected under standard conditions, which are detailed below for each cell line.
(§2) Cells were plated in all wells of a tissue-culture treated, 96-well plate at a final count of 5000 cells/well in 100 μL of the appropriate culture media. The cells were cultured for 24 hours after plating at 37° C. in the presence of 5% CO2.
(§3) After 24 hours, complexes containing siNA and RNAiMax were created as follows: A solution of RNAiMax diluted 33-fold in OPTI-MEM was prepared. […] After incubation of RNAiMax/OPTI-MEM solution at room temperature for 5 min, an equal volume of the siNA solution and the RNAiMax solution were added together for each of the siNAs.
(§4) This solution was incubated at room temperature for 20 minutes. After incubation, 20 uL of the solution was added to each of the relevant wells. The final concentration of siNA in each well was 10 nM and the final volume of RNAiMax in each well was 0.3 ul. […]
(§5) Briefly, a 60 uL (1 plate) or 110 uL (2 plates) of the Lysis Solution with DNase I was dispensed into each well of the Lysis Buffer Plate (twin.tec full skirt plate). The lysis buffer and stop plates were stored at 4° C. until the cells were washed.
(§6) The plate was spun at 1100 rpm for 5 minutes. The culture medium was aspirated and discarded from the wells of the culture plate. The lysis was performed automatically using a BioMek FX instrument and method. After the Biomek method was completed, the lysis plate was incubated for 2 min at room temperature. The lysis plate can be stored for 2 hours at 4° C., or at −20° C. or −80° C. for two months.
(§7) Each well of the reverse transcription plate required 10 uL of 2× reverse transcriptase Buffer, 1 uL of 20× reverse transcription enzyme and 2 uL of nuclease-free water. The reverse transcription master mix was prepared by mixing 2× reverse transcription buffer, 20× reverse transcription enzyme mix, and nuclease-free water. 13 uL of the reverse transcription master mix was dispensed into each well of the reverse transcription plate (semi-skirted). A separate reverse transcription plate was prepared for each cell plate. The plate was loaded onto a Biomek NX or Biomek FX Dual −96 and the Biomek method was run. The program is programmed to automatically added 7 uL of lysate from the cell lysis procedure described above into each well of the reverse transcription plate. The plate is sealed and spun on a centrifuge (1000 rpm for 30 seconds) to settle the contents to the bottom of the reverse transcription plate. The plate is placed in a thermocycler at 37° C. for 60 min, 95° C. for 5 min, and 4° C. until the plate is removed from the thermocycler. Upon removal, if not used immediately, the plate was frozen at −20° C.
(§8) A series of probes and primers were used to detect the various mRNA transcripts of the genes of Bach1, HMOX-1, and GAPDH in mouse and human cell lines. The assays were performed on an ABI 7900 instrument, according to the manufacturer's instructions. […] The PCR reactions were carried out at 50° C. for 2 min, 95° C. for 20 min followed by 40 cycles at 95° C. for 15 secs and 60° C. for 1 min
(§9) Within each experiment, the […] was set in the exponential phase of the amplification curve, and based on the intersection point of the baselines with the amplification curve, a Ct value was assigned by the instrument.
(§10) The expression level of the gene of interest and % knock-down was calculated using Comparative Ct method:
(§11) ΔCt=ΔCt(Target siRNA)−ΔCt(NTC)
(§12) Relative expression level=2^−ΔΔCt
(§13) The non-targeting control siNA was, unless otherwise indicated, chosen as the value against which to calculate the % knock-down, because it is the most relevant control.

[2] = tested on: Bach1 mRNA; experiment: Initial screen: Bach1 mRNA knock-down in human A549 cells (96-well transfection, quantitative RT-PCR); type: cell-based; conditions: Bach1 mRNA, 10 nM siNA, human A549 cells, n = 2, mean ± S.D., normalized to GAPDH and non-targeting control, 24 hrs post-transfection
Method: as §1, §2, §3, §4, §5, §6, §7, §8, §9, §10, §11, §12, §13

[3] = tested on: cigarette smoke-induced lung destruction; conditions: Sussan et al (2009); cited from earlier work
[4] = tested on: Heme Oxygenase-1 (HO-1) protein; experiment: HO-1 protein expression by Western Blot in airway epithelial cells from a COPD subject; type: cell-based, human; conditions: FIG. 13, positive controls, 18-hour treatment period
Method: Human airway epithelial cells were obtained by bronchoscopy from a subject with COPD (35-pack years). The cells were seeded at a density of 1×10^5 cells in a 24-well plate and incubated at 37° C. and 5% CO2 overnight. […] Whole cell lysates were created to detect Heme Oxygenase-1 (HO-1) protein expression via Western Blot.
Whole cell lysates were quantified and 5 micrograms of protein per lane were loaded into a 12.5% Tris-HCL gel. A 1:5000 dilution of Anti-Human Heme Oxygenase-1 polyclonal antibody (Assay Designs) was used to detect HO-1 protein levels. The blot was stripped and reprobed with a beta actin antibody to confirm equal loading.

29976-DC: Bach1 siNA duplex, target site 1585 (mouse); sense B cuGcucAAGcAAcuuGGAA TTB (SEQ 101); antisense UUCcAAGuuGcuuGAGcAGUU (SEQ 102) (sense CUGCUCAAGCAACUUGGAATT; antisense UUCCAAGUUGCUUGAGCAGUU; sense: DNA at AGT, 2'-fluoro at CU, [invAb] at 5' end, 3' end, backbone not given here; antisense: sugars from the 5' end rrrfmmmffmfffmmmfmmmm, backbone not given here)
% KD [1]: −1.2 ± 11.6% | % KD [2]: 17.5 ± 1.7%

29977-DC: Bach1 siNA duplex, target site 1640 (mouse); sense B GAGccuuGcccGuAuGcuu TTB (SEQ 103); antisense AAGcAuAcGGGcAAGGcucUU (SEQ 104) (sense GAGCCUUGCCCGUAUGCUUTT; antisense AAGCAUACGGGCAAGGCUCUU; sense: DNA at AGT, 2'-fluoro at CU, [invAb] at 5' end, 3' end, backbone not given here; antisense: sugars from the 5' end rrrfmfmfmmmfmmmmfffmm, backbone not given here)
% KD [1]: 53 ± 2.9% | % KD [2]: 18.9 ± 0.3%

29978-DC: Bach1 siNA duplex, target site 403 (mouse); sense B GGuuAAAGGAuuuGAAccu TTB (SEQ 105); antisense AGGuucAAAuccuuuAAccUU (SEQ 106) (sense GGUUAAAGGAUUUGAACCUTT; antisense AGGUUCAAAUCCUUUAACCUU; sense: DNA at AGT, 2'-fluoro at CU, [invAb] at 5' end, 3' end, backbone not given here; antisense: sugars from the 5' end rrrfffmmmffffffmmffmm, backbone not given here)
% KD [1]: 3.3 ± 3.8% | % KD [2]: 14.4 ± 0^ %

29979-DC: Bach1 siNA duplex, target site 1523 (mouse); sense B cGGAcuuucAcAAcucucA TTB (SEQ 107); antisense UGAGAGuuGuGAAAGuccGUU (SEQ 108) (sense CGGACUUUCACAACUCUCATT; antisense UGAGAGUUGUGAAAGUCCGUU; sense: DNA at AGT, 2'-fluoro at CU, [invAb] at 5' end, 3' end, backbone not given here; antisense: sugars from the 5' end rrrmmmffmfmmmmmfffmmm, backbone not given here)
% KD [1]: 62.4 ± 2.6% | % KD [2]: −18.1 ± 18^ %

29980-DC: Bach1 siNA duplex, target site 1939 (mouse); sense B cGAGAAGcuGcAAAGuGAA TTB (SEQ 109); antisense UUCAcuuuGcAGcuucucGUU (SEQ 110) (sense CGAGAAGCUGCAAAGUGAATT; antisense UUCACUUUGCAGCUUCUCGUU; sense: DNA at AGT, 2'-fluoro at CU, [invAb] at 5' end, 3' end, backbone not given here; antisense: sugars from the 5' end rrrmffffmfmmffffffmmm, backbone not given here)
% KD [1]: 49.2 ± 1.1% | % KD [2]: 91.3 ± 0.9%

29981-DC: Bach1 siNA duplex, target site 331 (mouse); sense B cAGcuAcuuccAcucGAGA TTB (SEQ 111); antisense UCUcGAGuGGAAGuAGcuGUU (SEQ 112) (sense CAGCUACUUCCACUCGAGATT; antisense UCUCGAGUGGAAGUAGCUGUU; sense: DNA at AGT, 2'-fluoro at CU, [invAb] at 5' end, 3' end, backbone not given here; antisense: sugars from the 5' end rrrfmmmfmmmmmfmmffmmm, backbone not given here)
% KD [1]: 3.5 ± 5% | % KD [2]: 1 ± 0.9%

29982-DC: Bach1 siNA duplex, target site 1752 (mouse); sense B cAuucAAuGcccAAcGGAu TTB (SEQ 113); antisense AUCcGuuGGGcAuuGAAuGUU (SEQ 114) (sense CAUUCAAUGCCCAACGGAUTT; antisense AUCCGUUGGGCAUUGAAUGUU; sense: DNA at AGT, 2'-fluoro at CU, [invAb] at 5' end, 3' end, backbone not given here; antisense: sugars from the 5' end rrrfmffmmmfmffmmmfmmm, backbone not given here)
% KD [1]: 9 ± 8.9% | % KD [2]: −9.2 ± 4.6%

29983-DC: Bach1 siNA duplex, target site 363; sense B GAuuuGAAccuuuAAuucA TTB (SEQ 115); antisense UGAAuuAAAGGuucAAAucUU (SEQ 116) (sense GAUUUGAACCUUUAAUUCATT; antisense UGAAUUAAAGGUUCAAAUCUU; sense: DNA at AGT, 2'-fluoro at CU, [invAb] at 5' end, 3' end, backbone not given here; antisense: sugars from the 5' end rrrmffmmmmmfffmmmffmm, backbone not given here)
% KD [1]: 49 ± 2% | % KD [2]: 74.7 ± 1.8%

29985-DC: Bach1 siNA duplex, target site 1312; sense B AGGcuucuGGAGuGAcAuu TTB (SEQ 119); antisense AAUGucAcuccAGAAGccuUU (SEQ 120) (sense AGGCUUCUGGAGUGACAUUTT; antisense AAUGUCACUCCAGAAGCCUUU; sense: sugars from the 5' end dddfffffddddfrdfdffdd, [invAb] at 5' end, 3' end, backbone not given here; antisense: sugars from the 5' end rrrmffmffffmmmmmfffmm, backbone not given here)
% KD [1]: 1.3 ± 4.5% | % KD [2]: 18.6 ± 6.5%

29987-DC: Bach1 siNA duplex, target site 1313; sense B GGcuucuGGAGuGAcAuuu TTB (SEQ 123); antisense AAAuGucAcuccAGAAGccUU (SEQ 124) (sense GGCUUCUGGAGUGACAUUUTT; antisense AAAUGUCACUCCAGAAGCCUU; sense: DNA at AGT, 2'-fluoro at CU, [invAb] at 5' end, 3' end, backbone not given here; antisense: sugars from the 5' end rrrfmffmffffmmmmmffmm, backbone not given here)
% KD [1]: −16.1 ± 11.6% | % KD [2]: 16 ± 0.2%

CC1(C)CC[C@]2(C(=O)n3ccnc3)CC[C@]3(C)[C@H](C(=O)C=C4[C@@]5(C)C=C(C#N)C(=O)C(C)(C)[C@@H]5CC[C@]43C)[C@@H]2C1 [CDDO-Im]
lung oxidative stress markers, alveolar cell apoptosis and the subsequent lung destruction, and pulmonary hypertension [3]: significantly reduce

C[S+]([O-])CCCCN=C=S (centres unmarked) [Sulforaphane]
HO-1 protein expression [4]: increased HO-1 protein expression

hemin
HO-1 protein expression [4]: increased HO-1 protein expression
